Residues, ends and D or L forms follow the SMILES beside them. *: point of attachment. Mts = Cc1cc(C)c(S(=O)(=O)*)c(C)c1; Npys = O=[N+]([O-])c1cccnc1S*; X1 = COc1ccc(COC(=O)*)cc1; Boc = CC(C)(C)OC(=O)*; OBn = c1ccc(CO*)cc1; X2 = C1CCCC(O*)CC1; NHNH2 = NN*
Assays:
Protein Mdm4 = target: T1, Protein Mdm4 (Homo sapiens, UniProt O15151); assay: Inhibition of MDMX (unknown origin) binding to FAM-LTFEHYWAQLTS-NH2 after 30 mins by fluorescence polarization assay
T1 sequence (O15151 whole entry): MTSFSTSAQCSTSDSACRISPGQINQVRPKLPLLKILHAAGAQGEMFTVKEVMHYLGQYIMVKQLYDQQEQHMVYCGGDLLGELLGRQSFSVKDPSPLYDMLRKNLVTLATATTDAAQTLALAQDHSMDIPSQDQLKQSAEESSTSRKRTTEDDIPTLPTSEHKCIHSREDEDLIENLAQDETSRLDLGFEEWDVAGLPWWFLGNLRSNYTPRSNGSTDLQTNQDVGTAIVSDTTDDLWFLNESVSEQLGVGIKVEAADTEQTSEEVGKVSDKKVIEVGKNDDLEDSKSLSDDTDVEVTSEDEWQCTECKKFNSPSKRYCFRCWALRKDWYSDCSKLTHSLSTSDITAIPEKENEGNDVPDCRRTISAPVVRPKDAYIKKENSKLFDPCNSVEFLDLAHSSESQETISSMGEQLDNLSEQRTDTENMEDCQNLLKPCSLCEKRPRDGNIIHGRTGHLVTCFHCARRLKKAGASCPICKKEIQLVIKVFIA

[1] = Solubility of the compound in DMEM medium at > 30 uM; assay type: physicochemical
[2] = target: E3 ubiquitin-protein ligase Mdm2 (Homo sapiens, UniProt Q00987); assay: Inhibition of MDM2 (unknown origin) binding to FAM-LTFEHYWAQLTS-NH2 after 30 mins by fluorescence polarization assay
A549 = assay: Growth inhibition of human A549 cells after 72 hrs by MTS assay; assay type: functional, cell-based; settings: A549, 72 h

E3 ubiquitin-protein ligase Mdm2, sequence (Q00987 whole entry): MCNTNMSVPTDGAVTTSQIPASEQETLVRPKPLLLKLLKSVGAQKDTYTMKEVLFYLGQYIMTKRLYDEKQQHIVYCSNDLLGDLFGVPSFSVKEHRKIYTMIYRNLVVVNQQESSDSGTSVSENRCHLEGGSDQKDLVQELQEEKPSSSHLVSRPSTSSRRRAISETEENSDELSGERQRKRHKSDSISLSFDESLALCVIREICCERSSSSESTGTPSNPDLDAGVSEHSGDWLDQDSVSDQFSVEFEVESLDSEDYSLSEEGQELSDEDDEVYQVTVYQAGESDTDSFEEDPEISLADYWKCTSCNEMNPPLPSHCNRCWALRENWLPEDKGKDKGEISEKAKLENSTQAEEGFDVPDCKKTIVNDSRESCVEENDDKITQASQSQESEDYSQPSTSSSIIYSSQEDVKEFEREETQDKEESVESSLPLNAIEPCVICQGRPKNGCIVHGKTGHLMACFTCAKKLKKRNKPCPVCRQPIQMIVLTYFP

IC50 (Protein Mdm4) [µM]	solubility [1]	IC50 [2] [µM]	EC50 (A549) [µM]	SMILES
32.4	Insoluble	8.51	> 30	COc1ccc(COC(=O)N[C@H](C(=O)N[C@@H](CCC(C)=O)C(=O)N[C@@H](Cc2cn(S(=O)(=O)c3c(C)cc(C)cc3C)c3ccccc23)C(=O)N[C@@H](CC(C)C)C(=O)NN)C(C)C)cc1
42.1		22.2	13.7	CC[C@H](C)[C@H](NC(=O)[C@H](Cc1ccccc1)NC(=O)[C@H](CSSc1ncccc1[N+](=O)[O-])NC(=O)OC(C)(C)C)C(=O)N[C@@H](CCCNC(=N)NS(=O)(=O)c1c(C)cc(C)cc1C)C(=O)OC (Boc-C(Npys)FIR(Mts)-OMe)
52.5	Insoluble	21.3	> 30	COc1ccc(COC(=O)N[C@@H](C)C(=O)N[C@@H](CCC(=O)OCc2ccccc2)C(=O)N[C@@H](CC(C)C)C(=O)N[C@H](C(=O)N[C@@H](CC(=O)OC2CCCCCC2)C(=O)N[C@@H](C)C(=O)NN)C(C)C)cc1 (X1-AE(OBn)LVD(X2)A-NHNH2)

Source: ChEMBL document CHEMBL2396614, “Affinity-based screening of MDM2/MDMX-p53 interaction inhibitors by chemical array: identification of novel peptidic inhibitors” (Bioorg Med Chem Lett, 2013)
